Results as given in PubChem BioAssay AID328 (DTP/NCI, 2004).
Toxic doses and inconclusive results are not listed. How the source made its calls: active means survival T/C of 150% or more; inactive means T/C below 125% in these data.

Tested on: BDF1 mice, P388 leukemia ip, median survival T/C
Assay: NCI In Vivo Anticancer Drug Screen. Data for tumor model P388 Leukemia (intraperitoneal) in B6D2F1 (BDF1) mice
Conditions: endpoint: median survival time, higher = longer survival
Procedure, shortened: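 T/C = treated-group survival ÷ vehicle-control survival; tumour transplanted into mice before dosing.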

[1] = dose: 50.0 mg/kg/injection, schedule: Q01DX009 (ip), vehicle: saline with Tween-80
[2] = dose: 100.0 mg/kg/injection, schedule: Q01DX009 (ip), vehicle: saline with Tween-80
[3] = dose: 200.0 mg/kg/injection, schedule: Q01DX009 (ip), vehicle: saline with Tween-80
[4] = dose: 100.0 mg/kg/injection, schedule: Q04DX003 (ip), vehicle: Klucel (hydroxypropylcellulose) (HPC)
[5] = dose: 200.0 mg/kg/injection, schedule: Q04DX003 (ip), vehicle: Klucel (hydroxypropylcellulose) (HPC)
[6] = dose: 400.0 mg/kg/injection, schedule: Q04DX003 (ip), vehicle: Klucel (hydroxypropylcellulose) (HPC)
[7] = dose: 100.0 mg/kg/injection, schedule: Q01DX009 (ip), vehicle: Klucel (hydroxypropylcellulose) (HPC)
[8] = dose: 200.0 mg/kg/injection, schedule: Q01DX009 (ip), vehicle: Klucel (hydroxypropylcellulose) (HPC)
[9] = dose: 100.0 mg/kg/injection, schedule: Q04DX003 (ip), vehicle: saline with Tween-80
[10] = dose: 200.0 mg/kg/injection, schedule: Q04DX003 (ip), vehicle: saline with Tween-80
[11] = dose: 400.0 mg/kg/injection, schedule: Q04DX003 (ip), vehicle: saline with Tween-80
[12] = dose: 25.0 mg/kg/injection, schedule: Q01DX009 (ip), vehicle: saline with Tween-80
[13] = dose: 50.0 mg/kg/injection, schedule: Q04DX003 (ip), vehicle: saline with Tween-80

Measured: T/C

CC(=O)OC1CCC2(C)C3=C(CCC2C1(C)C)C1(C)CCC(c2ccc(C(C)C)oc2=O)C1(C)CC3 (stereo unspecified)
inactive: dose: 70.0 mg/kg/injection, schedule: Q01DX010 (ip), vehicle: carboxymethylcellulose (CMC) 90 % of control | dose: 140.0 mg/kg/injection, schedule: Q01DX010 (ip), vehicle: carboxymethylcellulose (CMC) 90 % of control | dose: 280.0 mg/kg/injection, schedule: Q01DX010 (ip), vehicle: carboxymethylcellulose (CMC) 90 % of control

O=C(O)c1occ(Cl)c1Cl
inactive: dose: 0.78 mg/kg/injection, schedule: Q01DX009 (ip), vehicle: water 100 % of control | dose: 1.56 mg/kg/injection, schedule: Q01DX009 (ip), vehicle: water 98 % of control | dose: 3.12 mg/kg/injection, schedule: Q01DX009 (ip), vehicle: water 97 % of control | dose: 6.25 mg/kg/injection, schedule: Q01DX009 (ip), vehicle: water 97 % of control | dose: 12.5 mg/kg/injection, schedule: Q01DX009 (ip), vehicle: water 94 % of control | dose: 25.0 mg/kg/injection, schedule: Q01DX009 (ip), vehicle: water 94 % of control | dose: 50.0 mg/kg/injection, schedule: Q01DX009 (ip), vehicle: water 106 % of control | dose: 50.0 mg/kg/injection, schedule: Q04DX003 (ip), vehicle: water 96 % of control | dose: 100.0 mg/kg/injection, schedule: Q04DX003 (ip), vehicle: water 104 % of control | dose: 200.0 mg/kg/injection, schedule: Q04DX003 (ip), vehicle: water 119 % of control

N#CN=CN1CC=C(c2ccc(Cl)cc2)CC1
inactive: [1] 98 % of control | [2] 93 % of control | [3] 94 % of control

CN1C(c2ccc(Cl)cc2)OCC1(C)C (stereo unspecified)
inactive: dose: 50.0 mg/kg/injection, schedule: Q01DX001 (ip), vehicle: saline sonified 100 % of control | dose: 100.0 mg/kg/injection, schedule: Q01DX001 (ip), vehicle: saline sonified 100 % of control | dose: 200.0 mg/kg/injection, schedule: Q01DX001 (ip), vehicle: saline sonified 100 % of control

O=C(CC(c1ccccc1)N1CCN(c2ccccc2)CC1)c1ccccc1 (stereo unspecified)
inactive: [4] 100 % of control | [5] 100 % of control | [6] 100 % of control

CC[C@@H]1C[C@@H]2CN3CCc4c([nH]c5ccc(OC)cc45)C(C(=O)OC)(C2)C13
inactive: dose: 50.0 mg/kg/injection, schedule: Q01DX009 (ip), vehicle: Klucel (hydroxypropylcellulose) (HPC) 108 % of control | [7] 113 % of control | [8] 113 % of control

COc1ccc(CNCCNCc2ccc(OC)c(OC)c2)cc1OC
inactive: [9] 115 % of control | [10] 105 % of control | [11] 110 % of control

Cc1c(N)cc([N+](=O)[O-])c(C)c1[N+](=O)[O-]
inactive: [1] 95 % of control | [2] 90 % of control

CCCCn1nnc2c(NN)nc(N)nc21
inactive: [12] 100 % of control | dose: 25.0 mg/kg/injection, schedule: Q04DX003 (ip), vehicle: saline with Tween-80 100 % of control | [1] 100 % of control | [13] 100 % of control | [9] 100 % of control

FC(F)c1nc2nc(Cl)c(Cl)nc2[nH]1
inactive: dose: 12.5 mg/kg/injection, schedule: Q01DX009 (ip), vehicle: saline with Tween-80 110 % of control | [1] 120 % of control | [13] 100 % of control | dose: 75.0 mg/kg/injection, schedule: Q01DX009 (ip), vehicle: saline with Tween-80 103 % of control | [9] 109 % of control

CC(C)CCCC(C)C1CCC2C3CC=C4CC(S[As](C)C)CCC4(C)C3CCC12C (stereo unspecified)
inactive: [1] 98 % of control | [2] 95 % of control | [3] 98 % of control

COc1ccc2nc(C)c(COC(C)=O)cc2c1
inactive: dose: 25.0 mg/kg/injection, schedule: Q01DX009 (ip), vehicle: saline + alcohol 93 % of control | dose: 50.0 mg/kg/injection, schedule: Q01DX009 (ip), vehicle: saline + alcohol 111 % of control | dose: 50.0 mg/kg/injection, schedule: Q04DX003 (ip), vehicle: saline + alcohol 109 % of control | dose: 100.0 mg/kg/injection, schedule: Q01DX009 (ip), vehicle: saline + alcohol 101 % of control | dose: 100.0 mg/kg/injection, schedule: Q04DX003 (ip), vehicle: saline + alcohol 109 % of control | dose: 200.0 mg/kg/injection, schedule: Q01DX009 (ip), vehicle: saline + alcohol 90 % of control | dose: 200.0 mg/kg/injection, schedule: Q04DX003 (ip), vehicle: saline + alcohol 97 % of control | dose: 400.0 mg/kg/injection, schedule: Q01DX009 (ip), vehicle: saline + alcohol 109 % of control | dose: 400.0 mg/kg/injection, schedule: Q04DX003 (ip), vehicle: saline + alcohol 110 % of control

Clc1cccc(NC2=NCCN=C(Nc3cccc(Cl)c3Cl)SS2)c1Cl
inactive: [1] 102 % of control | [2] 100 % of control | [3] 96 % of control

O=C(CC(=O)C(F)(F)F)c1ccc(-c2ccccc2)cc1
inactive: [1] 110 % of control | [2] 122 % of control

C(=Nc1ccccc1)c1ccccc1C=Nc1ccccc1
inactive: [9] 104 % of control | [10] 109 % of control | [11] 100 % of control

c1ccc2c(c1)C1CC(N3CCCCC3)C2c2ccccc21 (stereo unspecified)
inactive: [7] 90 % of control | [4] 95 % of control | [8] 86 % of control | [5] 100 % of control | dose: 400.0 mg/kg/injection, schedule: Q01DX009 (ip), vehicle: Klucel (hydroxypropylcellulose) (HPC) 90 % of control | [6] 91 % of control

CCOC(=O)C(C)[P+](c1ccccc1)(c1ccccc1)c1ccccc1 (stereo unspecified)
inactive: dose: 1.0 mg/kg/injection, schedule: Q01DX009 (ip), vehicle: saline 115 % of control | dose: 1.5 mg/kg/injection, schedule: Q01DX009 (ip), vehicle: saline 103 % of control | dose: 1.5 mg/kg/injection, schedule: Q04DX003 (ip), vehicle: saline 90 % of control | dose: 2.25 mg/kg/injection, schedule: Q01DX009 (ip), vehicle: saline 100 % of control | dose: 3.0 mg/kg/injection, schedule: Q01DX009 (ip), vehicle: saline 118 % of control | dose: 3.0 mg/kg/injection, schedule: Q04DX003 (ip), vehicle: saline 104 % of control | dose: 6.0 mg/kg/injection, schedule: Q04DX003 (ip), vehicle: saline 90 % of control

COc1cc2cc3c4ccccc4cc[n+]3c(C)c2cc1OC (tested in a mixture with another compound)
inactive: dose: 5.0 mg/kg/injection, schedule: Q04DX003 (ip), vehicle: saline 101 % of control | dose: 20.0 mg/kg/injection, schedule: Q01DX009 (ip), vehicle: saline 109 % of control | dose: 40.0 mg/kg/injection, schedule: Q01DX009 (ip), vehicle: saline 104 % of control | dose: 80.0 mg/kg/injection, schedule: Q04DX003 (ip), vehicle: saline 109 % of control

O=C1c2cccnc2C(=O)c2c(O)ccc(O)c21
inactive: [12] 97 % of control | [1] 99 % of control | [2] 92 % of control | [3] 115 % of control
